Measured values as given in US11655246B2, “Aminothiazole compounds as inhibitors of CTPS1” (STEP PHARMA S.A.S., priority 2017, dated 2023).
Where a name gives a salt, the structure may show the parent alone.

target: T1, human CTPS1 (Homo sapiens, UniProt P17812); assay: Human CTPS1 enzyme inhibition (ADP-Glo Max assay); format: biochemical; details: Table 17, 25° C., read-out: CTPS1 (Human CTPS1 Enzyme Inhibition data grouped by potency range)
T1 construct: purchased Proteros biostructures GmbH
T1 sequence (P17812 1-591): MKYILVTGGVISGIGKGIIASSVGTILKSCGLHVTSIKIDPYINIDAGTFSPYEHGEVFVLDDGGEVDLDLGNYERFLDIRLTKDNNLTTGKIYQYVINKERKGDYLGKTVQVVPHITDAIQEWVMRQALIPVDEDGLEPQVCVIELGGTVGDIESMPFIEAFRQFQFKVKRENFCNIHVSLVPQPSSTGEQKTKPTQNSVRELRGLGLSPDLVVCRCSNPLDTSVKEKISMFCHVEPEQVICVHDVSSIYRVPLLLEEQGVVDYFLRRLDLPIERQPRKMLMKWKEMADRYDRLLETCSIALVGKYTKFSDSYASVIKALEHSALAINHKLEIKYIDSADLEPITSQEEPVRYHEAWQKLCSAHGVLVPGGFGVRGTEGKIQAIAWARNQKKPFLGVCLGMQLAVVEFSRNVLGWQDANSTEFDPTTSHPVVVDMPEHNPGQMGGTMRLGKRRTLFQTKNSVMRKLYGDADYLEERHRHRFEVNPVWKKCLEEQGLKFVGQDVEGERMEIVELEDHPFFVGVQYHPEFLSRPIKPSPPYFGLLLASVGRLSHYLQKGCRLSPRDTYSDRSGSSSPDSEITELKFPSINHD
How it was run: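 ADP-Glo Max luminescence detection of ATP-to-ADP conversion by the enzyme, in 50 mM Tris, 10 mM MgCl2, 0.01% Tween-20, pH 8.0, with 2 mM L-cysteine added fresh. Enzyme preincubated with compound 10 minutes at 25° C. Percentage inhibition calculated per compound concentration.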

| IC50 [nM] | Compound |
| --- | --- |
| 1000 to 10000 | CC(C)C(C(=O)Nc1ccc(-c2ccccc2)cc1)c1csc(NS(=O)(=O)C2CC2)n1 (stereo not shown) [T86] |
| < 100 | O=C(Nc1ccc(-c2cccnc2)cc1)C(F)(F)c1csc(NS(=O)(=O)C2CC2)n1 [T89] |
| 100 to 1000 | CCC(C(=O)N(C)c1ccc(-c2cccnc2)cc1)c1csc(NS(=O)(=O)C2CC2)n1 (stereo not shown) [T315] |
| 1000 to 10000 | CC(C)(C(=O)Nc1ccc(-c2ncccn2)cc1)c1csc(NS(=O)(=O)C2CC2)n1 [T4, 2-(2-(cyclopropanesulfonamido)thiazol-4-yl)-2-methyl-N-(4-(pyrimidin-2-yl)phenyl)propanamide] |
| 100 to 1000 | O=C(Nc1ccc(-c2cncc(F)c2)cc1)C1CCc2sc(NS(=O)(=O)C3CC3)nc21 (stereo not shown) [T218] |
| < 100 | CCC(C(=O)Nc1ccc(-c2cncc(Cl)c2)cc1)c1csc(NS(=O)(=O)C2CC2)n1 (single isomer, unassigned) [T10, N-(4-(5-chloropyridin-3-yl)phenyl)-2-(2-(cyclopropanesulfonamido)thiazol-4-yl)butanamide.HCl] |

same assay, conditions: Table 18, additional potency data, 25° C., read-out: CTPS1 (Human CTPS1 Enzyme Inhibition data grouped by potency range)

| Compound | IC50 [nM] |
| --- | --- |
| COCCS(=O)(=O)Nc1nc(C(C)(C)C(=O)Nc2ccc(-c3cncc(C(F)(F)F)n3)cn2)cs1 [T332, 2-(2-((2-methoxyethyl)sulfonamido)thiazol-4-yl)-2-methyl-N-(5-(6-(trifluoromethyl)pyrazin-2-yl)pyridin-2-yl)propanamide] | 100 to 1000 |
| CCOc1cncc(-c2ccc(NC(=O)C(NC(=O)OC)c3csc(NS(=O)(=O)C4CC4)n3)cc2)n1 (stereo not shown) [T327, methyl (1-(2-(cyclopropanesulfonamido)thiazol-4-yl)-2-((4-(6-ethoxypyrazin-2-yl)phenyl)amino)-2-oxoethyl)carbamate] | < 100 |
| CCc1cc(-c2cncc(C#N)c2)cc(CC)c1NC(=O)C(C)(C)c1csc(NS(=O)(=O)C2CC2)n1 [T349, N-(4-(5-cyanopyridin-3-yl)-2,6-diethylphenyl)-2-(2-(cyclopropanesulfonamido)thiazol-4-yl)-2-methylpropanamide] | 100 to 1000 |
| CC(C)(C(=O)Nc1ccc(-c2cncc(C#N)c2)cc1C(F)(F)F)c1csc(NS(=O)(=O)C2CC2)n1 [T344, N-(4-(5-cyanopyridin-3-yl)-2-(trifluoromethyl)phenyl)-2-(2-(cyclopropanesulfonamido)thiazol-4-yl)-2-methylpropanamide] | < 100 |

Continued, values first:

| IC50 [nM] | Compound |
| --- | --- |
| < 100 | CCOc1cncc(-c2ccc(NC(=O)C(CC)c3csc(NS(=O)(=O)C4CC4)n3)c(C)c2)n1 (stereo not shown) [T441] |
| < 100 | CC(C)c1cc(-c2cncc(Cl)c2)ccc1NC(=O)C(C)(C)c1csc(NS(=O)(=O)C2CC2)n1 [T359, N-(4-(5-chloropyridin-3-yl)-2-isopropylphenyl)-2-(2-(cyclopropanesulfonamido)thiazol-4-yl)-2-methylpropanamide] |
| < 100 | Cc1cc(-c2cncc(C(F)(F)F)n2)ccc1NC(=O)C(C)(C)c1csc(NS(=O)(=O)C2CC2)n1 [T368, 2-(2-(cyclopropanesulfonamido)thiazol-4-yl)-2-methyl-N-(2-methyl-4-(6-(trifluoromethyl)pyrazin-2-yl)phenyl)propanamide] |
| 100 to 1000 | CC(C)(C(=O)Nc1ccc(-c2cncc(Cl)c2)cc1)c1csc(NS(C)(=O)=O)n1 [T393, N-(4-(5-chloropyridin-3-yl)phenyl)-2-methyl-2-(2-(methylsulfonamido)thiazol-4-yl)propanamide] |
| < 100 | CCS(=O)(=O)Nc1nc(C(C)(C)C(=O)Nc2ccc(-c3cncc(OC(C)C)n3)cc2F)cs1 [T383, 2-(2-(ethylsulfonamido)thiazol-4-yl)-N-(2-fluoro-4-(6-isopropoxypyrazin-2-yl)phenyl)-2-methylpropanamide] |
| < 100 | CCOc1cncc(-c2ccc(NC(=O)C(OC)c3csc(NS(=O)(=O)C4CC4)n3)cc2)n1 (racemic) [T410, 2-(2-(cyclopropanesulfonamido)thiazol-4-yl)-N-(4-(6-ethoxypyrazin-2-yl)phenyl)-2-methoxyacetamide] |
